Counter-ions that a name gives are not always drawn.
Key:
[1] = test system: THP-1 cells; assay: Cytokine and chemokine production of P4N treated THP-1, Bio-Plex and ELISA; type: cell-based, human
Procedure: THP-1 cells were treated with 3 μM of P4N or the vehicle control (NC) for 24 h. Supernatants were collected and analyzed using the Bio-Plex assay for human cytokines. Shown are the concentrations of 27 human cytokines for each treatment from three independent experiments. The levels of IL-2, IL-4, IL-6, IL-7, IL-9, IL13, IL-15, Eotaxin, G-CSF, IFN-γ and PDGF-bb were undetectable.
FIG. 13 provides graphs showing P4N-induced pro-inflammatory cytokine production in THP-1 cells. THP-1 cells were treated with 3 μM P4N for different lengths of time, Cell supernatants were collected and TNF-α, IL-1β and IL-8 quantitated by ELISA. All results are the mean of three independent experiments (n=6).

[2] = test system: CT26 tumors; assay: P4N treatments in vivo, CT-26 tumors in nude mice; design: species or system nude mice (BALB/c/nu); conditions: immunodeficient nude mice, one intratumoral injection of 2.5 mg/kg or 5 mg/kg
Procedure: P4N treatments in vivo. BALB/c or BALB/c/nu mice (6 week old) were inoculated subcutaneously with 1×10^6 CT-26 cells in 100 μl PBS. When the average tumor mass reached 50 mm^3, the animals were treated with 2.5 mg/kg or 5 mg/kg of P4N in one intratumoral injection. Subsequently, the tumor volumes were measured using a caliper every 2 days, and the volumes were calculated using the following formula: volume (mm^3)=length×width×height. Before sacrifice, the sera of the mice were collected for experimental use.

[3] = test system: PBMCs; assay: Cytokine and chemokine profile of P4N treated PBMC, Bio-Plex; type: cell-based, human; conditions: 3 μM P4N
Procedure: PBMCs isolated from 7 healthy donors were treated with 3 μM of P4N for 48 h. Supernatants were collected and analyzed for human cytokines using the Bio-Plex assay. Shown are the changed results of the production of 27 human cytokines when PBMCs were treated with P4N in three independent experiments. The levels of IL-4, IL-5, IL-7, IL-9, Eotaxin and FGF were undetectable.
The effects of P4N on the profile of cytokine expression. PBMCs (2×10^6 cells/ml) from seven healthy individuals were seeded in each well of a 24-well microplate and treated with 3 μM of P4N for 24 h. Cell supernatants were collected for analysis of cytokine levels by a cytokine multiplex assay using the Bio-Plex Pro Human Cytokine Standard Group I 27-Plex, following the manufacturer's protocol (Bio-Rad, Hercules, Calif.). The change levels of cytokine were calculated as follows: Change level=(value of the P4N-treated cells)/(value of the untreated cells)×100%.

[4] = test system: CT26 tumors; assay: Immunohistochemical staining of tumors after P4N; type: in vivo, mice
Text: Immunohistochemical staining. Tumors isolated from P4N and vehicle-treated mice were embedded in paraffin and thin sections were made and processed for immunohistochemical staining. The sections were probed with rat monoclonal anti-F4/80 (1:50 dilution; GeneTex, Irvine, Calif.) and anti-CD20 (1:200 dilution; Santa Cruz Biotechnology, Dallas, Tex.), hamster monoclonal anti-CD11c (1:25 dilution; GeneTex), rabbit monoclonal anti-CD3 (1:50 dilution; GeneTex), rabbit polyclonal anti-TNF-α and anti-IL-8 antibody (1:50 dilution; Assay BioTech. Sunnyvale, Calif.) at 4° C. overnight, and the detection antibodies were recognized using a horseradish peroxidase (HRP)-conjugated anti-rat, anti-hamster, or anti-rabbit IgG antibody (1/1,500 dilution; Santa Cruz Biotechnology). The immune complexes in the sections were visualized using the LSAB2 system (DAKO, Carpinteria, Calif.). The sections were counterstained with hematoxylin, mounted, observed under a light microscope at a magnification of 400×, and photographed.

[5] = test system: human PBMCs; assay: PBMC proliferation assay; type: cell-based; conditions: 48 h
Procedure: PBMC proliferation assay. Two hundred microliters of PBMCs (5×10^4 cells/ml) were seeded in each well of a 96-well culture plate and treated with increasing concentrations of P4N (0.38, 0.75, 1.5, 3 or 6 μM) for 48 h. The number of viable cells was evaluated by MTT assay and a cell proliferation index was calculated as follows: Proliferation index=(OD595 of sample)/(OD595 of the untreated cells)×100%. PBMCs were also treated with or without P4N (0.75, 1.5 or 3 μM) for 48 h, and probed with anti-CD20 antibodies (Roche, Mannheim, Germany) and FITC-conjugated goat anti-human IgG polyclonal antibodies (SouthernBiotech, Birmingham, Ala.). The percentage of B cells in treated PBMCs was determined by flow cytometry (BD Biosciences, Mountain View, Calif.), and the indices of B cell proliferation were calculated as follows: (the number of PBMCs×the percentage of B cells in treated PBMCs)/(the number of PBMCs×the percentage of B cells in untreated PBMCs).

[6] = test system: mouse splenocytes; assay: Effect of P4N on B cell lineage in mouse splenocytes in vitro; type: cell-based
Procedure: The effect of P4N on changes in B cell lineage in vitro. Single cell suspensions of mouse splenocytes were obtained by grinding the spleens from healthy mice. The suspended splenocytes were treated with or without 0.1 or 0.2 μM of P4N for 48 h, and the percentage of naïve B cells, activated B cells, B1 cells or Breg cells were measured after staining with the following fluorochrome conjugates using flow cytometry (BD Biosciences): anti-CD19-FITC, anti-CD-23-APC, anti-CD-38-APC, anti-CD5-PE or anti-CD1d-Alexa 647 (BioLegend, San Diego, Calif.). The cell types were defined as follows: naïve B cells (CD19+CD23+), activated B cells (CD19+CD38+), B1 cells (CD19+CD5+) and Breg cells (CD19+CD5+CD1d+). The indices of different types of B cell proliferation were calculated as follows: (the number of splenocytes×the percentage of each B cell population in treated splenocytes)/(the number of splenocytes×the percentage of each B cell population in untreated splenocytes).

[7] = THP-1 monocytes, 3 μM P4N, ELISA

## C[C@H](Cc1ccc(OCCN2CCCCC2)c(OCCN2CCCCC2)c1)[C@@H](C)Cc1ccc(OCCN2CCCCC2)c(OCCN2CCCCC2)c1 [P4N, meso-2,3-dimethyl-1,4-bis(3,4-[2-(piperidino)ethoxyphenyl])butane tetrakishydrochloride salt]
[1]; THP-1, 3 μM P4N, 24 h
  levels of IL-2, IL-4, IL-6, IL-7, IL-9, IL13, IL-15, Eotaxin, G-CSF, IFN-γ and PDGF-bb: undetectable
[1]; THP-1, 3 μM P4N, 24 h, Bio-Plex
  expression of pro-inflammatory cytokines and chemokines: increased the expression
[1]; [7]
  time of stimulated IL-8 release: ≥ 8 h
  time to induction of TNF-α and IL-1β expression: ≤ 4 h
[2]
  growth of CT26 tumors: had no effect
[3]
  levels of pro-inflammatory cytokines (TNF-α, IL-1P and IL-6) and chemokines (IL-8, IP-10, MIP-1α, MIP-1β and RANTES): significantly increased
[3]; 48 h
  levels of IL-4, IL-5, IL-7, IL-9, Eotaxin and FGF: undetectable
[4]; 5 mg/kg intratumoral, day 7, both strains of mice
  expression levels of TNF-α and IL-8 in tumors: enhanced the expression levels
[4]; single intratumoral injection 5 mg/kg, day 7, IHC
  infiltration of immune cells (macrophages, DC, T or B cells) into the tumor area: led to the infiltration of immune cells
[5]; depending on the dose of P4N (0.38-6 μM), MTT
  increase of PBMC proliferation: 10-35%
[5]; flow cytometry
  proliferation of the B cell population in human PBMCs: significantly increased
[6]; 48 h
  total B cell proliferation in mouse splenocytes: increased total B cell proliferation
[6]; absence of antigen stimulation
  number of activated B cells: had no effect

Source: US20190111040A1, “IN VIVO AMELIORATION OF ENDOGENOUS ANTI-TUMOR AUTOANTIBODIES TARGETING SURFACE TUMOR ANTIGENS VIA LOW-DOSE P4N” (THE JOHNS HOPKINS UNIVERSITY, priority 2016, published 2019)
